The target of data set [1] is T1, STS activity in murine livers and tumors (Mus musculus, UniProt P50427).
T1 sequence (P50427 23-624): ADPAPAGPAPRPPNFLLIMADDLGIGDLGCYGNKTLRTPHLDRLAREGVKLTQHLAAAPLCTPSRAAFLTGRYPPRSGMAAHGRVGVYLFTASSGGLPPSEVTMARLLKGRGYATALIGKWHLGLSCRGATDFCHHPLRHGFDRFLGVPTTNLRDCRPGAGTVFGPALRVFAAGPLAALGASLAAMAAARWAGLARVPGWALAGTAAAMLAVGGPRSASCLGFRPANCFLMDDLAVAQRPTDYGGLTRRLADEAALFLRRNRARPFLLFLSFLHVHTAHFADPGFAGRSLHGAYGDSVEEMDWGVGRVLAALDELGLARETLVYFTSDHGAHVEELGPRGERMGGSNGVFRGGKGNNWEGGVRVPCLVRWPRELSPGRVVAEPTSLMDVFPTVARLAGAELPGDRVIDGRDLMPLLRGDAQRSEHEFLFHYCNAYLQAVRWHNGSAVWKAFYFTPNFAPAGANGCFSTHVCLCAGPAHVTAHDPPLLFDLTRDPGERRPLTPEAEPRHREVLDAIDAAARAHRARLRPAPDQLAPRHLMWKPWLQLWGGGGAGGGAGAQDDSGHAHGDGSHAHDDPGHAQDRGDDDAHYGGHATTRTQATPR
Nature of the data set: determination of STS activity in murine livers and tumors of treated mice.
Procedure: Then, the samples were subjected to sonication in five cycles of 10 s each and centrifuged for 10 min at 14 000g to pellet the tissue debris. Total protein concentrations were determined in the obtained lysates using the Bradford method, and 100 μg of the total protein was used for each reaction as a source of STS activity. […] E1S (4 × 10^4 Bq, 3 nM) and 20 mM Tris-HCl, pH 7.4. The volume of the reaction mixtures was adjusted to 100 μL with water. After incubation, 60 μL of each reaction mixture was collected, and the product formed by STS hydrolysis was extracted with toluene (0.5 mL). STS activity was measured using a MicroBeta radioluminometer (PerkinElmer). Assays were carried out in triplicate.

The nature of data set [2]: blood morphology, blood biochemistry and organ weights of mice with 67NR tumor.
Procedure: At the end of the study, the autopsy of the animals was performed: blood was collected for further analyses of the morphology (Table S2, Supporting Information) and biochemistry (Table S3 and Figure S6, Supporting Information) and for the determination of the plasma estradiol level using the ELISA method.
Mice were injected orthotopically (in the mammary gland fat pad) with 67NR mouse mammary tumor cells derived from in vitro culture (1.5 × 10^5 cells/0.05 mL Hanks fluid/mouse). The growth of tumors has been observed. […] Animals were observed during the next 17 days and euthanized. During observation, body weight and tumor growth were monitored three times a week. The volume of the tumors was calculated according to the following formula: TV = a^2·b/2 [mm^3], (where: a—width and b—length of the tumor). Blood, tumor tissue, and liver were harvested during autopsy for further analyses. Blood aliquots (about 500 μL) were collected in EDTA containing vials for morphology analysis (Mythic 18 analyzer, Orphee), and then, the plasma was collected (centrifuged at 2500g for 15 min at 4 °C within 1 h after collection) for biochemical parameter analysis (Cobas c111, Roche).
The target of data set [3] is T2, STS isolated from the human placenta (Homo sapiens, UniProt P08842).
T2 construct: radioisotope enzymatic assay using STS isolated from the human placenta; from tissue; host or cells: human placenta
T2 sequence (P08842 22-583): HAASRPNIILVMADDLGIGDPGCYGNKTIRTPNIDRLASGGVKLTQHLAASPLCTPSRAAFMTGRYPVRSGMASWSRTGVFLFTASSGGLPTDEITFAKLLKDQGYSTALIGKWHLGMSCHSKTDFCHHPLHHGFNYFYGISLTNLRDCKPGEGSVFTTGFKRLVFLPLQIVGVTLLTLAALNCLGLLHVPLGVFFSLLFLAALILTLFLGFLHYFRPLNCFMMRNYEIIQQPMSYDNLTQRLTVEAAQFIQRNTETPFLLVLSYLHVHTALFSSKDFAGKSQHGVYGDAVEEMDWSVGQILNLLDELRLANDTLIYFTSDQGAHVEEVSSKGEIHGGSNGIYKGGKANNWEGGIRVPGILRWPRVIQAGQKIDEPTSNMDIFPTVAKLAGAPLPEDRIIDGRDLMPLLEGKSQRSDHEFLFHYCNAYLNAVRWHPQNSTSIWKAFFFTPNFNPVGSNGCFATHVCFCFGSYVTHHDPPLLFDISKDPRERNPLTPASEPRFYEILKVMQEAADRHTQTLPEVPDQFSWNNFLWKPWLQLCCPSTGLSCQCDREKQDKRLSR
Nature of the data set: radioisotope enzymatic assay with STS isolated from human placenta and [3H]E1S. In kind it is biochemical.
Procedure: The inhibitory potency of the synthesized compounds was examined in two ways, including an enzymatic assay and the radioisotope cellular test. The enzymatic assay was performed using the STS enzyme isolated from human placenta and using radiolabeled [^3H]E1S as a substrate.
The total volume of the reaction mixture was 100 μL. […] After incubation, the reaction mixture (90 μL) was collected from each well, and the product formed by STS hydrolysis was extracted with toluene (0.5 mL). STS activity was measured using a MicroBeta radioluminometer (PerkinElmer). Enzymatic assays were carried out in triplicate.

Data set [4] is classed as in vivo. The following applies: Table S1, MTD study, 50 mg/kg.
Procedure: The mice were thus weighed, and their general health was observed. […] At the end of the study, the mice were sacrificed by dislocation of the cervical vertebrae, and the internal organs were examined macroscopically.
The mice were weighed, and their general health was observed. […] At the end of the MTD study, the autopsy was performed, and the internal organs (liver, kidney, and spleen) were weighed and macroscopically assessed.
For data set [5], the system named is 67NR mouse mammary tumor cells. Nature of the data set: antitumor activity in 67NR orthotopic mouse breast carcinoma model. In kind it is in vivo, BALB/c mice. The following applies: 50 mg/kg b.w. per os. The protocol:
The tumor volume (TV) and body weight were measured three times a week. Results for individual groups are reported in Figure S5, Supporting Information. Based on TV data, the tumor growth inhibition (TGI) was calculated for groups that received compounds and compared to that of the control group. […] The body weight of the treated animals was monitored during the study, and the body weight change (BWC) index was calculated (Figure 4). […] Body weight loss was observed between D2 and D11 and reached 4.5% at most.
The growth of tumors has been observed.

The next data set has as its target T3, STS in MCF-7 cells (Homo sapiens, UniProt P08842).
T3 construct: The radioisotope cellular assay was performed using the MCF-7 cell line; endogenous in cells; host or cells: MCF-7
T3 sequence (P08842 22-583): T2 sequence (P08842 22-583)
Nature of the data set: radioisotope cellular assay with [3H]E1S in MCF-7 cells. In kind it is cell-based.

A further data set concerns STS. Further details: method as in earlier work. The following applies: STS inhibitory effect, system not given; ref 14−16; cited from earlier work.
[6] abbreviates: Table S2, mice with 67NR tumor, 50 mg/kg.
[7] abbreviates: Table S3, plasma, mice with 67NR tumor, 50 mg/kg per os, N=9.

“And” between values parts separate entries of the source, which are not always exact repeats. Equal values may be shown once. Read-outs that look alike come from different tables or passages of the source.

Procedure for STS in MCF-7 cells: All compounds were initially tested for their in cell inhibitory action at a 100 nM concentration.
The inhibitory potency of the synthesized compounds was examined in two ways, including an enzymatic assay and the radioisotope cellular test. […] The radioisotope cellular assay was performed using the MCF-7 cell line in the presence of radiolabeled [^3H]E1S.
The evaluation of the inhibitory effect of each compound with breast cancer cells was performed using a previously described method (27) with some modifications. MCF-7 cells were maintained in Dulbecco’s modified Eagle medium supplemented with 10% fetal bovine serum and cultured in the above medium until 80% confluence. […] After incubation, the medium (0.45 mL) was collected from each well, and the product formed by STS hydrolysis was extracted with toluene (4 mL). STS activity was measured using a MicroBeta radioluminometer (PerkinElmer). Assays with MCF-7 cells were carried out in triplicate.

As to `NS(=O)(=O)Oc1ccc(-c2cn(-c3cc(F)cc(F)c3)nn2)cc1` [5l, 4-(1-(3,5-difluorophenyl)-1H-1,2,3-triazol-4-yl)phenyl sulfamate], in data set [1] (liver tissue of mice treated per os at 50 mg/kg b.w.), the “Residual STS activity [%] Liver” value is 10,1%. In data set [1] (tumor tissue of mice treated per os at 50 mg/kg b.w.), the “Residual STS activity [%] Tumor” value is 1,3%. Further, the spleen weight entry in data set [2] (50 mg/kg b.w. per os, mice with 67NR tumor) is “Significantly smaller spleens weights”. In addition, in data set [2] (setting [6]), the HCT is 34,7±2,1%, the HGB is on record as 13,3±0,8 g/dL, the MCH is listed as 17,8±0,3 pg and the MCHC was 38,3±0,4 g/dL. Also, in data set [2] (setting [6]), the MCV is 46,4±0,7 fL, the PCT was 0,233±0,035%, the PDW is recorded as 29,3±4,6 fL and the PLT is 463,1±74 x103/uL. For the same molecule, in data set [2] (setting [6]), the RBC was 7,5±0,5 x106/uL and the RDW was 18,4±1%. For the same molecule, in data set [2] (setting [7]), the creatinine is recorded as 5,6±1,65 umol/L and the urea is 8,1±0,7 mmol/L. In addition, the “residual STS activity [%]” value in data set [3] (0.5 μM inhibitor concentration, substrate [3H]E1S, 3 nM, triplicate) was 17.34 ± 0.87%. For the same molecule, in data set [3] (read-out: residual STS activity [%]), the remaining activity at 0.5 µM was 17.3%. Moreover, in data set [4], the GRAN is given as 10,6±0,2%, the HCT is 42±1,9%, the HGB was 15,4±0,5 g/dL and the LIMF is listed as 86,6±0,2%. Also, in data set [4], the MCH was 17,3±0,1 pg, the MCHC is 36,6±0,4 g/dL, the MCV is on record as 47,2±0,2 fL and the MON is listed as 2,9±0,4%. Moreover, in data set [4], the PLT was 596±64 10x3/uL, the RBC was 8,9±0,4 10x6/uL, the RDW is given as 17,3±0,2% and the WBC is given as 4,2±0,6 10x3/uL. Moreover, the “tumor growth inhibition (TGI)” value in data set [5] (5 days a week, 67NR tumor, N = 9, vs control group) was 39%. Also, in data set [5] (nine mice/group), the “mice responded to the treatment” value was 8 mice, the “mice with much larger tumor than the mean control volume” value is 1 mice and the “mice with tumor volume reduced by approx. 50% compared to the TV control” value came out at 3 mice. For the same molecule, at STS in MCF-7 cells (MCF7, 20 h, read-out: residual STS activity [%] 1 nM), the remaining activity at 0.001 µM worked out at 13.6%. Besides, the remaining activity at 0.01 µM on STS in MCF-7 cells (MCF7, 20 h, read-out: residual STS activity [%] 10 nM) turned out to be 1%. Also, the remaining activity at 0.1 µM at STS in MCF-7 cells (MCF7, 20 h, read-out: residual STS activity [%] 100 nM) was 1%. Moreover, the IC50 on STS in MCF-7 cells (MCF-7 cells, substrate [3H]E1S, 3 nM) amounted to 0.21 ± 0.01 nM.

For the molecule `NS(=O)(=O)Oc1ccc2c3c(c(=O)oc2c1)CCCCC3` [Irosustat, reference compound], in the data set on STS, the IC50 was 8 nM. Moreover, the “residual STS activity [%] 1 nM” value at STS in MCF-7 cells (MCF-7 cells, 1 nM inhibitor, substrate [3H]E1S, 3 nM, triplicate) is 16.8% and 16.8 ± 0.5%. Besides, at STS in MCF-7 cells (MCF-7 cells, 10 nM inhibitor, substrate [3H]E1S, 3 nM, triplicate), the “residual STS activity [%] 10 nM” value was 12.9% and 12.9 ± 0.77%. Further, the “residual STS activity [%] 100 nM” value at STS in MCF-7 cells (MCF-7 cells, 100 nM inhibitor, substrate [3H]E1S, 3 nM, triplicate) was 2.4% and 2.4 ± 0.07%.

Source of the values: article PMC8958511, “Development of Sulfamoylated 4-(1-Phenyl-1H-1,2,3-triazol-4-yl)phenol Derivatives as Potent Steroid Sulfatase Inhibitors for Efficient Treatment of Breast Cancer” (Journal of Medicinal Chemistry, 2022).
